# Reference: ChEMBL document CHEMBL1201862, “PubChem BioAssay data set” (2004)
# Calls of active or inactive are those of the source.
# Experiments:
# [1] = molecular target: FAD-linked sulfhydryl oxidase ALR (Homo sapiens, UniProt P55789); assay: inhibitors of human ALR sulfhydryl oxidase, dose response, biochemical, H2O2 detection, luminescence, cherry-pick (AID 493248)
# Genome polyprotein = Genome polyprotein (dengue virus type 2, UniProt P29990); assay: Dengue-2 NS5 methyltransferase inhibitors, primary screen, biochemical, confirmation dose response (AID 588689); format: functional
# [2] = inhibitors of firefly luciferase expression or activity, dose response, H4 neuroglioma cells, luminescence (AID 1990); format: functional, cell-based
# [3] = molecular target: T1, Luciferin 4-monooxygenase (Photinus pyralis, UniProt P08659); assay: Counter Screen for Luciferase-based Assay Positives. [Related pubchem assays: 620, 618, 411 ]
# [4] = Luminescence Cell-Based Dose Response HTS to Identify Inhibitors of 5'UTR Stem-Loop Driven Prion Protein mRNA Translation in H4 Neuroglioblastoma Cells. [Related pubchem assays: 1827 (Project Summary), 1813 (Primary HTS)]; format: functional
# [5] = inhibitors of SNCA 5'UTR-driven reporter translation, confirmation, H4 neuroglioma cells, luminescence (AID 1988); format: functional, cell-based
# Large T antigen = Large T antigen (Simian virus 40, UniProt P03070); format: functional, Betapolyomavirus macacae;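 also: Confirmatory-stage PubChem screen for compounds that inhibit SV40 T antigen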
# HT-1080 = assay: cytotoxicity in HT1080 fibrosarcoma cells, cell-based, fluorescence readout (AID 620); format: functional; conditions: Homo sapiens
# [6] = molecular target: T2, Microphthalmia-associated transcription factor (Homo sapiens, UniProt O75030); assay: TRPM1 promoter luciferase signal decrease, dose response, MITF inhibitor project, cell-based, SK-MEL-5, cherry-picked, set 3 (AID 493073); format: functional
# T2 sequence (O75030 whole entry): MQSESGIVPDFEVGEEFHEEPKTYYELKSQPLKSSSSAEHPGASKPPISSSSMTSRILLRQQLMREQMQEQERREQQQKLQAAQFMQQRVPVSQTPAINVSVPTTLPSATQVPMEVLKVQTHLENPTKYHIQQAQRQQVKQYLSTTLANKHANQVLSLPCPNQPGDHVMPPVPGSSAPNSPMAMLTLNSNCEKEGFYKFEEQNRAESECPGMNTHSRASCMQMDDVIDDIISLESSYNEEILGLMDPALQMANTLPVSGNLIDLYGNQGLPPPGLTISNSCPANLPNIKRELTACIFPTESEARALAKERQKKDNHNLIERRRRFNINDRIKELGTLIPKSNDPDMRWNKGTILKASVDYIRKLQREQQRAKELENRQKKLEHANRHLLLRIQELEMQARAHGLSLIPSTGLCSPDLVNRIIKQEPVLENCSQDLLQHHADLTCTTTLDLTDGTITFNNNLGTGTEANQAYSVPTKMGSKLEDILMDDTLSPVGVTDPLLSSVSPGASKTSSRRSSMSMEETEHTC
# [7] = molecular target: T3, Ubiquitin-conjugating enzyme E2 N (Homo sapiens, UniProt P61088); format: functional;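 also: Dose-response confirmation in a TR-FRET assay detecting UBC13-driven polyubiquitin chain formation, inhibition measured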
# T3 sequence (P61088 whole entry): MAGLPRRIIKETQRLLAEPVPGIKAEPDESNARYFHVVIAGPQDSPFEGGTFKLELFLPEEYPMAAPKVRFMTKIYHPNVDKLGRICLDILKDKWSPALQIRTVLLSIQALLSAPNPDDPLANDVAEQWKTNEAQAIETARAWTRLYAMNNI
# [8] = molecular target: Voltage-dependent T-type calcium channel subunit alpha-1H (Homo sapiens, UniProt O95180); format: functional;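 also: channel activity triggered by adding a high calcium stimulation buffer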
# [9] = molecular target: T1, Luciferin 4-monooxygenase; assay: firefly luciferase enzyme inhibitors, dose response, biochemical, luminescence (AID 1891)
# [10] = Luminescence Cell-Based Dose Confirmation HTS to Identify Inhibitors of Platelet Dense Granule Release. [Related pubchem assays: 1663 (Primary HTS), 1678 (Summary of Project)]; format: functional
# [11] = molecular target: DNA dC->dU-editing enzyme APOBEC-3A (Homo sapiens, UniProt P31941); assay: Dose Response confirmation of small molecule APOBEC3A DNA Deaminase Inhibitors via a fluorescence-based single-stranded DNA deaminase assay. [Related pubchem assays (depositor defined):AID493011, AID493024]; format: functional
# [12] = molecular target: T4, DNA dC->dU-editing enzyme APOBEC-3G (Homo sapiens, UniProt Q9HC16); format: functional
# [13] = HEp-2 cell cytotoxicity, dose response, cytotoxicity control for RSV inhibitor project, HTS (AID 2410); format: functional; conditions: human respiratory syncytial virus
# SUMO-activating enzyme [14] = molecular target: T5, SUMO-activating enzyme (Homo sapiens, UniProt Q9UBT2); assay: SUMOylation inhibitor hit validation, confirmation, SUMOylation inhibitor project, biochemical, AlphaScreen (AID 2018); format: functional
# SUMO-activating enzyme [15] = molecular target: T5, SUMO-activating enzyme; assay: inhibitors of in vitro SUMOylation cascade, primary screen, biochemical, HTRF, uHTS (AID 2006); format: protein-complex assay
# [16] = molecular target: Photoreceptor-specific nuclear receptor (Homo sapiens, UniProt Q9Y5X4); format: functional;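 also: potency for compounds that break the NR2E3 corepressor complex and count as activators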
# [17] = molecular target: Peroxisome proliferator-activated receptor gamma/Nuclear receptor corepressor 2 (Homo sapiens, UniProt P37231+Q9Y618); format: functional
# [18] = inhibitors of intracellular T. cruzi replication, confirmation, NIH3T3 host cells, beta-gal luminescence (AID 2044); format: functional, cell-based;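 also: intracellular parasites grown in NIH/3T3 mouse fibroblasts as host cells; luminescent beta-galactosidase reporter signal from transgenic T. cruzi replicating inside host cells; inhibitors lower the luminescence signal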
# [19] = cytotoxicity toward NIH3T3 fibroblasts, dose response, counter-screen, cell-based, ATP luminescence, mouse fibroblasts (AID 2010); format: functional;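 also: cells exposed to compound for about 90 hours before reading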
# [20] = Luminescence Cell-Based Dose Retest to Confirm Inhibitors of Cancer Stem Cells. [Related pubchem assays (depositor defined):AID2717, AID2721]; format: functional; conditions: Homo sapiens
# HEK293 = assay: inhibitors of LMP1-driven NF-kB reporter, dose response, cell-based, HEK293, luciferase, cherry-pick (AID 588343); format: functional; conditions: Homo sapiens
# [21] = molecular target: T4, DNA dC->dU-editing enzyme APOBEC-3G; assay: Dose Response confirmation of small molecule APOBEC3G DNA Deaminase Inhibitors via a fluorescence-based single-stranded DNA deaminase assay. [Related pubchem assays (depositor defined):AID493012, AID493028]; format: functional
# Protein skinhead-1 = molecular target: T6, Protein skinhead-1 (Caenorhabditis elegans, UniProt P34707); format: functional
# T6 sequence (P34707 whole entry): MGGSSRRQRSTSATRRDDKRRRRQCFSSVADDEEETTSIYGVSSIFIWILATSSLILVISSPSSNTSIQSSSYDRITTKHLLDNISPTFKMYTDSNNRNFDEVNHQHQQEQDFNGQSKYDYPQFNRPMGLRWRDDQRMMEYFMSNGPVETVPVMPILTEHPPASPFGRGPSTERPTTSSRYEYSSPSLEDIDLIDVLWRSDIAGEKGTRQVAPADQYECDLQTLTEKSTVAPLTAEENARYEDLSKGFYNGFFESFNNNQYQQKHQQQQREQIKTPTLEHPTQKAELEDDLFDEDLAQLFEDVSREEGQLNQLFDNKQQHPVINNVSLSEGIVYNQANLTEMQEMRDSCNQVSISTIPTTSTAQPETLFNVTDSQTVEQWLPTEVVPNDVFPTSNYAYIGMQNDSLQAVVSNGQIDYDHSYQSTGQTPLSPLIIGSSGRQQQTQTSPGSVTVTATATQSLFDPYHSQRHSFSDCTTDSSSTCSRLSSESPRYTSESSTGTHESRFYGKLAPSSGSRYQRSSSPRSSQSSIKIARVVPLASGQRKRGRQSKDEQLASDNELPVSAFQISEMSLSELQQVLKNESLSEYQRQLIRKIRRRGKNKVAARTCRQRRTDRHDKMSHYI
# [22] = molecular target: T7, Carboxy-terminal domain RNA polymerase II polypeptide A small phosphatase 1 (Homo sapiens, UniProt Q9GZU7); assay: inhibitors of CTDSP1, concentration-response testing, biochemical assay, absorbance-based, actives from ultra-high-throughput screening (AID 540297); format: functional
# T7 sequence (Q9GZU7 whole entry): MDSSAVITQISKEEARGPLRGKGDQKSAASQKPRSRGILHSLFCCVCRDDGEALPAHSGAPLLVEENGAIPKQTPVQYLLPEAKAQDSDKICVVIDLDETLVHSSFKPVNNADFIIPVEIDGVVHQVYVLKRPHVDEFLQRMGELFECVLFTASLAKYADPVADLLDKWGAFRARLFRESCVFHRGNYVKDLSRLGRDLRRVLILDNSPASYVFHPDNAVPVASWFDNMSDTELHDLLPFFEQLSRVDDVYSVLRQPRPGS
# Cytochrome P450 1A2 = molecular target: T8, Cytochrome P450 1A2 (Homo sapiens, UniProt P05177);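 also: PubChem cytochrome P450 panel assay, CYP1A2 panel member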
# T8 sequence (P05177 whole entry): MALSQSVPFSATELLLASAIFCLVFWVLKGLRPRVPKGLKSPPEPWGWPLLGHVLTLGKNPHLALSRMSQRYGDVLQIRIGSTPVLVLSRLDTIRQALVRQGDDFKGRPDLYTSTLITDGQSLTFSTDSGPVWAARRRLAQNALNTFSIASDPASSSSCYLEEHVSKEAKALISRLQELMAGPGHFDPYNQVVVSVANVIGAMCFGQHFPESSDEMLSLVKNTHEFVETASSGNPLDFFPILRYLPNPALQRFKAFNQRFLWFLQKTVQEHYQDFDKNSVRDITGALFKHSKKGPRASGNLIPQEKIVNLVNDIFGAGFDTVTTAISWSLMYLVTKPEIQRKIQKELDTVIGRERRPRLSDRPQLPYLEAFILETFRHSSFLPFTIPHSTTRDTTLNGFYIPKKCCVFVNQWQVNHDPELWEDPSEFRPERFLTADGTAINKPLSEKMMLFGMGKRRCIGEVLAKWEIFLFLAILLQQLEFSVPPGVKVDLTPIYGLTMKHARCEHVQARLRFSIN
# Cytochrome P450 2C9 = Cytochrome P450 2C9 (Homo sapiens, UniProt P11712)
# [23] = tested on: Streptococcus sp. 'group A'; assay: growth inhibition of control SK(-) GAS strain, dose response, counter-screen for streptokinase expression inhibitor project, luminescence, kanamycin, BacTiterGlo, confirmation (AID 1900); format: functional, organism-based
# cells [24] = format: functional, cell-based
# cells [25] = format: functional, cell-based; remark: listed apart in the source
# Streptococcus = assay: Group A Streptococcus viability loss, dose response, counter-screen for streptokinase expression inhibitor project, luminescence, BacTiterGlo (AID 1915); format: functional, organism-based;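 also: potency for reduction of bacterial viability or growth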
# INS1 = assay: beta cell apoptosis inhibitors, cytokine rescue, dose response, luminescence, retest (AID 449756); format: functional, cell-based; conditions: Rattus norvegicus;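 also: cell death triggered by IL-1 beta plus TNF-alpha plus IFN-gamma mixture; protective hits raise ATP signal compared with cytokine alone wells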
# DNA dC->dU-editing enzyme APOBEC-3A, sequence (P31941 whole entry): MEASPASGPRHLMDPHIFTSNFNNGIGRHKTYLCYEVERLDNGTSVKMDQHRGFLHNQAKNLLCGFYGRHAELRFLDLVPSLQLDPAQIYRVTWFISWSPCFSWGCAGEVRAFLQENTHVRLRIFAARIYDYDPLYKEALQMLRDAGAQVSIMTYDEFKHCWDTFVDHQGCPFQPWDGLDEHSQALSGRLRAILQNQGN
# T1 sequence (P08659 whole entry): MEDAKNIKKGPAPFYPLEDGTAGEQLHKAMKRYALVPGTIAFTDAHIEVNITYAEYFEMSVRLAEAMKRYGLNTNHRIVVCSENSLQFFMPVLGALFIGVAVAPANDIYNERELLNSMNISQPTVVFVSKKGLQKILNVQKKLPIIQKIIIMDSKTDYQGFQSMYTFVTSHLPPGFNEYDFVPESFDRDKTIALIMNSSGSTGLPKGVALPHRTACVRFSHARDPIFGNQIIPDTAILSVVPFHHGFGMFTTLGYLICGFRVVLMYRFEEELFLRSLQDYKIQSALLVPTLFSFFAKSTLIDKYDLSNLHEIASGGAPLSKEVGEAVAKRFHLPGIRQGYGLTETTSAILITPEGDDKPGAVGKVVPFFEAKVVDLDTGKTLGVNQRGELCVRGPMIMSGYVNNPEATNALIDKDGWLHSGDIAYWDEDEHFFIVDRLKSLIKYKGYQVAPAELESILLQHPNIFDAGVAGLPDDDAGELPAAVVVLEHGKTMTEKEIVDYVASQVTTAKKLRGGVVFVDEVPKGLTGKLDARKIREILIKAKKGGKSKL
# Voltage-dependent T-type calcium channel subunit alpha-1H, sequence (O95180 whole entry): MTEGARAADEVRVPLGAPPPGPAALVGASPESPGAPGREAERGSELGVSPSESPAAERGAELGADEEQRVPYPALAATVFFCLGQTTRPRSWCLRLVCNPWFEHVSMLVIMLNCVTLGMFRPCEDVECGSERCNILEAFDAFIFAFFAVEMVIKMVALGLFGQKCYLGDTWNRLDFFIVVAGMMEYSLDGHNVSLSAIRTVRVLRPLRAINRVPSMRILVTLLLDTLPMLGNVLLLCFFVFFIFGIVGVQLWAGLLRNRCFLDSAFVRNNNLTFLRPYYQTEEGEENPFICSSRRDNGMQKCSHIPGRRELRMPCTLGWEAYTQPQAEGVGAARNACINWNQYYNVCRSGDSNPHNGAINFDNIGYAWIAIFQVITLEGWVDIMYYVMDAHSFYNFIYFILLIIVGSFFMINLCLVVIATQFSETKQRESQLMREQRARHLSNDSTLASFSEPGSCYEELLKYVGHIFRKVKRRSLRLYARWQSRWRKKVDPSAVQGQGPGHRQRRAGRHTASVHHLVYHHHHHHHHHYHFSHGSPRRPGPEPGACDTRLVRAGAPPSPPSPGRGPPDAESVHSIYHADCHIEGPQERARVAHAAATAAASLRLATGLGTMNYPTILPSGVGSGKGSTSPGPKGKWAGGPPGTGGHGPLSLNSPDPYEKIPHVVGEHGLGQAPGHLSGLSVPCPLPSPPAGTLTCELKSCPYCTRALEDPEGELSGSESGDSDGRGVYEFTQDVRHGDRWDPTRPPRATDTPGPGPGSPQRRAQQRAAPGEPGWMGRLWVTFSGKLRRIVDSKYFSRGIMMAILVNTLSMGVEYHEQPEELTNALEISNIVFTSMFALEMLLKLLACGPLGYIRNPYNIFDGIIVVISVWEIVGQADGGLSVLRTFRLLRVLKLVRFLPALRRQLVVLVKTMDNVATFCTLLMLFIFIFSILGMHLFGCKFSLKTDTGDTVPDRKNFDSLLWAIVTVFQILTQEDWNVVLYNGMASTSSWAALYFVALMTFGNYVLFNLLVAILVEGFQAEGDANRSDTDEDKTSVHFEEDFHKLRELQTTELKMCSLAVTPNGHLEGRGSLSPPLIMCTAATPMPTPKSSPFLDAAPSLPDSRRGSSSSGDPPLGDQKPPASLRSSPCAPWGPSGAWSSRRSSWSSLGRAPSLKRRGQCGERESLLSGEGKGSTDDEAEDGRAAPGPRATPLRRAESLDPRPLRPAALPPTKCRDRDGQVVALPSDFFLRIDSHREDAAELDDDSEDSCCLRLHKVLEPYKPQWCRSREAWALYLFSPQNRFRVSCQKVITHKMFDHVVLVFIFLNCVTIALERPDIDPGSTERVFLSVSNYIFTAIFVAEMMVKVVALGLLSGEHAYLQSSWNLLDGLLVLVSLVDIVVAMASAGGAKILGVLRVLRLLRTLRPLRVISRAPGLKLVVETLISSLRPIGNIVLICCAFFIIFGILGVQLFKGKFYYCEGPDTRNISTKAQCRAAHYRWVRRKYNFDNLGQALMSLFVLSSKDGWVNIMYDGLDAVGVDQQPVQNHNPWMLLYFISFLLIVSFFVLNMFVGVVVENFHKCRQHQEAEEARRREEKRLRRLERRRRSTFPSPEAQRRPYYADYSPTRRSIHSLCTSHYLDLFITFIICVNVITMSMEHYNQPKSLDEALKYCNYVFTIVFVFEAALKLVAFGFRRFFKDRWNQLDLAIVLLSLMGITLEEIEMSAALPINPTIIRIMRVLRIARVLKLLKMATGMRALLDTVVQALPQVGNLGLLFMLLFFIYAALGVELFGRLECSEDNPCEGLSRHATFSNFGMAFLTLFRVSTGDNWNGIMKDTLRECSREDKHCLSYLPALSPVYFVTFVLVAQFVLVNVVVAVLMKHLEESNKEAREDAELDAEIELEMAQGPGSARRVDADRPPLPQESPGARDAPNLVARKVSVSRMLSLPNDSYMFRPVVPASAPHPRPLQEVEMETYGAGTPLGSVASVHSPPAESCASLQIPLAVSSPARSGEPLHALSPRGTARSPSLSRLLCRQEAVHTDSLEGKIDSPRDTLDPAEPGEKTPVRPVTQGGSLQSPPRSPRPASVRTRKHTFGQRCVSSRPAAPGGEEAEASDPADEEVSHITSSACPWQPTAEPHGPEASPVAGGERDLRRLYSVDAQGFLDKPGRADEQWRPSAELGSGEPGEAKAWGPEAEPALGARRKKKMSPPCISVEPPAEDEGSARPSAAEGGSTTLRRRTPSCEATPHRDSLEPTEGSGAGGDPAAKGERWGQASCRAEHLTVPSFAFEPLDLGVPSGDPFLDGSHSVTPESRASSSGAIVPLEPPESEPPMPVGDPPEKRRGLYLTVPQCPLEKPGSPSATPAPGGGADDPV
# T4 sequence (Q9HC16 whole entry): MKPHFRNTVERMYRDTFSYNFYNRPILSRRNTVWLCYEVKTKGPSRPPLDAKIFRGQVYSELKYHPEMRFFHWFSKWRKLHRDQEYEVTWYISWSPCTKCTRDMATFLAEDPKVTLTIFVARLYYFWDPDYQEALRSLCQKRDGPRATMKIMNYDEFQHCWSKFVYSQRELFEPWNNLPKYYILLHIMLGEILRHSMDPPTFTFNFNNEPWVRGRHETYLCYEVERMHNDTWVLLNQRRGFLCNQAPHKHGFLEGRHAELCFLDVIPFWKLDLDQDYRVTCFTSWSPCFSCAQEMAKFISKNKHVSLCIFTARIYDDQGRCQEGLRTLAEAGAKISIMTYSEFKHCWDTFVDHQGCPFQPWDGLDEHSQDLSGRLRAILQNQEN
# T5 sequence (Q9UBE0 whole entry): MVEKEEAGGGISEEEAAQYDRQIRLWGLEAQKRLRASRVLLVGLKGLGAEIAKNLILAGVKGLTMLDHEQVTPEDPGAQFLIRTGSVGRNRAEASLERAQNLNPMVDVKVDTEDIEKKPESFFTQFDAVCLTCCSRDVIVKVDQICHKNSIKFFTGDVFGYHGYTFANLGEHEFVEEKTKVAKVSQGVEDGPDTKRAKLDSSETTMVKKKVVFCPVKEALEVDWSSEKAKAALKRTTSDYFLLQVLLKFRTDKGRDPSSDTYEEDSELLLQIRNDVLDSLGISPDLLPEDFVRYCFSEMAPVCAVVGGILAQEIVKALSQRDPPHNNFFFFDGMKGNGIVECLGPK
# T5 sequence (Q9UBT2 whole entry): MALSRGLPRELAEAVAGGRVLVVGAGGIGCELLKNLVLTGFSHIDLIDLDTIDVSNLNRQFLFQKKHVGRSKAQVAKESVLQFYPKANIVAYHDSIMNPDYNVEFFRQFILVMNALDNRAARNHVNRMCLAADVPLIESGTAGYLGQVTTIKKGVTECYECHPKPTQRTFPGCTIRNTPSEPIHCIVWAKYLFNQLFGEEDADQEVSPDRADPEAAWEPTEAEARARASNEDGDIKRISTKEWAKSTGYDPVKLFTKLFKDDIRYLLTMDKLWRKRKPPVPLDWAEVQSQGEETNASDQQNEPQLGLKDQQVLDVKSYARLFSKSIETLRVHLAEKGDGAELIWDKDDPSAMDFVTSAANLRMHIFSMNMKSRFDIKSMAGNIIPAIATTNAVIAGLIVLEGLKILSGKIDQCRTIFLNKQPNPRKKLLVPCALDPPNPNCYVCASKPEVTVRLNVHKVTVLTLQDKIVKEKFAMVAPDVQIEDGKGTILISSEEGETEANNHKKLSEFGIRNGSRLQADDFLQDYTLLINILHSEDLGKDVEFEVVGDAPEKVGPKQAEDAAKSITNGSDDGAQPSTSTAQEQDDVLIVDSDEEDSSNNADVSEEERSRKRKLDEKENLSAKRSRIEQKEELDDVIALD
# FAD-linked sulfhydryl oxidase ALR, sequence (P55789 whole entry): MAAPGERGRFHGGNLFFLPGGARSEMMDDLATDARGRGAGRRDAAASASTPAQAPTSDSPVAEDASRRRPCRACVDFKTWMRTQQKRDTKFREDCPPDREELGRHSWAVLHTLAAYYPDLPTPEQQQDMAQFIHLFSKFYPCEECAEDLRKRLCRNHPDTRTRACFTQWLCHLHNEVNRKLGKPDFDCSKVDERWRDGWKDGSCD
smiles,measurement,setting,value
O=C(O)CN1C(=O)/C(=C\c2cccc(OCc3ccccc3)c2)SC1=S,AC50,[1],4.52 µM (active)
same,IC50,Genome polyprotein,42.2 µM (active)
Nc1ccc(-c2nc3c(Cl)cc(N)cc3[nH]2)cc1,EC50,[2],9.81 µM (active)
same,EC50,[3],< 0.2 µM (active)
same,EC50,[4],0.21 µM (active)
same,EC50,[5],7.08 µM (active)
same,IC50,Large T antigen,9.32 µM (active)
same,EC50,HT-1080,> 50 µM (not active)
same,AC50,[1],0.556 µM (active)
same,AC50,[6],3.76 µM (active)
CCOCCCNC(=O)c1cn(CC(C)C)c(=O)c2c1c1ccccc1n2C,IC50,[7],> 20 µM (inactive)
CC(Sc1nnc(-c2cccs2)n1Cc1ccccc1)C(=O)NCc1ccc2c(c1)OCO2 (centres undefined),EC50,[8],9.04 µM (active)
COc1ccc(NC(=O)c2cc3ccccn3n2)cc1,EC50,[3],3.55 µM (active)
same,EC50,[9],31.4 µM (active)
same,EC50,[10],> 112 µM (not active)
same,EC50,HT-1080,29.9 µM (active)
CCSCCNC(=O)c1cc(-n2cnnc2)ccc1Cl,IC50,[11],4.2 µM (active)
same,IC50,[12],4.09 µM (active)
CC(C(=O)N1c2ccccc2CCc2ccccc21)n1nnc(-c2ccc(N(C)C)cc2)n1 (centres undefined),EC50,[8],4.2 µM (active)
O=C1NC(=O)N(Cc2ccco2)C(=O)/C1=C\c1cccn1CCOc1ccc(Cl)cc1,CC50,[13],24.2 µM (active)
same,IC50,SUMO-activating enzyme [14],5.71 µM (active)
same,IC50,SUMO-activating enzyme [15],35.7 µM (active)
COC(=O)CCCC[C@H]1SC[C@H]2NC(=O)N[C@]21O,IC50,[16],0.389 µM (active)
same,IC50,[17],1.92 µM (active)
CCN1CCN(Cc2ccc(NC(=O)c3ccc(C)c(NC(=O)c4cc(-c5ccc(Br)cc5)[nH]n4)c3)cc2C(F)(F)F)CC1,EC50,[18],1.53 µM (active)
same,EC50,[19],> 30 µM (not active)
same,AC50,[20],3.4 µM (active)
same,IC50,[7],> 20 µM (inactive)
same,AC50,HEK293,0.741 µM (active)
Cc1noc(C)c1CSc1nc2cc(S(=O)(=O)N3CCOCC3)ccc2o1,IC50,[21],50.7 µM (active)
Cc1ccc(C)c(N2CCN(C(c3ccc(N(C)C)cc3)c3nnnn3C(C)(C)C)CC2)c1 (centres undefined),EC50,[8],4.2 µM (active)
same,IC50,Protein skinhead-1,> 100 µM (inactive)
O=C(COc1ccc(CO)cc1Cl)Nc1ccc(F)cc1,EC50,[3],> 100 µM (not active)
same,EC50,HT-1080,> 50 µM (not active)
CCC(Sc1nc(O)c(C#N)c(-c2ccccc2)n1)C(=O)Nc1cc(C)on1 (centres undefined),IC50,[16],> 39.8 µM (not active)
same,IC50,[17],4.41 µM (active)
CC(C)CSC1=NSC2=NC(=O)/C(=C\c3ccccc3)C(=N)N12,IC50,Genome polyprotein,51.8 µM (active)
CC[N+]1(CC)CC2CCC(C)(C1)C2(C)C (centres undefined),IC50,[11],2.28 µM (active)
same,IC50,[12],3.3 µM (active)
same,IC50,[22],12.1 µM (active)
COc1ccc(CCNC(=O)C2CCCN(Cc3nc(-c4cccc(Cl)c4)oc3C)C2)cc1OC (centres undefined),EC50,[18],0.145 µM (active)
same,EC50,[19],> 60 µM (not active)
same,EC50,[8],5.34 µM (active)
same,AC50,Cytochrome P450 1A2,15.8 µM (inconclusive)
same,AC50,Cytochrome P450 2C9,6.31 µM (inconclusive)
O=C(N/N=C/c1cc(Br)cc(Br)c1O)c1ccncc1,EC50,[23],0.807 µM (active)
same,EC50,cells [24],24.8 µM (active)
same,IC50,SUMO-activating enzyme [14],5.03 µM (active)
same,IC50,SUMO-activating enzyme [15],8.52 µM (active)
same,EC50,cells [25],> 350 µM (not active)
same,EC50,Streptococcus,2.5 µM (active)
same,AC50,INS1,2.64 µM (active)
COc1ccc(CSCC(=O)N/N=C/c2ccc(OCC(=O)N3CCCCC3)cc2)cc1,IC50,[11],5.86 µM (active)
same,IC50,[12],6.1 µM (active)
